Test results taken from paper PMC10683372 (Protein Science : A Publication of the Protein Society, 2023).
Values joined by “and” are separate entries in the source; they are usually repeats but may differ in a detail not shown here. Equal entries are not always repeated. Where two headings read alike, the source gives them in different places. Bridge positions count the residues as written; N and C are the ends. Square brackets hold non-standard residues; d marks the D form. Ends that are not written are not given here. Peptide text beside a SMILES is read from it. Dip = N[C@H](C(=O)O)C(c1ccccc1)c1ccccc1; 1Nal = N[C@@H](Cc1cccc2ccccc12)C(=O)O; 2Nal = N[C@@H](Cc1ccc2ccccc2c1)C(=O)O; Cha = N[C@@H](CC1CCCCC1)C(=O)O; Nle = CCCC[C@H](N)C(=O)O

Tests used:
[1] = target: T1, recombinant wild type thrombin (αT) (Homo sapiens, UniProt P00734); experiment: Slow binding inhibition of thrombin amidolytic activity (S2238 progress curves); assay type: biochemical; settings: slow binding inhibition model (Eq. 5, 6), 25°C, TBS pH 7.4
T1 construct: made in house
Experimental: (§1) and added with the chromogenic substrate S2238 (100 mM). The values of vi/v0, were plotted as
(§2) a function of the inhibitor, as indicated, where v0 and vi are the steady state velocities in the
(§3) absence or presence of the inhibitor. The data points were interpolated with eq. 3, to yield Kiapp ,
(§4) which was then converted to KI using eq. 4. (B) Slow-binding inhibition. Assays were
(§5) performed by adding aT (50 pM) into a solution of S2238 (40 mM) in the presence of
(§6) Each progress curve was interpolated with
(§7) eq. 5 to obtain the corresponding observed kinetic constant, kobs.Interpolation of the data points
with eq. […]

α‐thrombin (αT) = target: T2, α‐thrombin (αT) (Homo sapiens, UniProt P00734); experiment: Tight-binding inhibition of αT amidolytic activity on chromogenic substrate S2238; assay type: biochemical
T2 construct: goes from Thr1 of the A-chain to Glu295 of the B-chain
Experimental: Enzyme inhibition assays were all performed at 25 ± 0.1°C in TBS (10 mM Tris–HCl pH 7.4, 0.1% PEG‐8000 w/v) in the presence of 0.15 M or 0.4 M NaCl, using a Jasco double‐beam V‐630 spectrophotometer equipped with a Peltier model PAC‐740 temperature control system (De Filippis et al., [1999]). Tight‐binding inhibition assays were performed by pre‐incubating αT (500 pM) for 30 min with increasing inhibitor concentrations [I]. The reaction started by the addition of the chromogenic substrate S2238 (20 μM) and the release of p‐nitroaniline (pNA) was continuously monitored at 405 nm, using a molar absorptivity of 9920 M^−1∙cm^−1.
as §1, §2, §3, §4, §5, §6, §7
with eq. 6 in the plot of kobs vs. [I], allowed us to estimate the values of kon and koff (see
Methods for details). All measurements were conducted in at 25 ± 0.1°C in TBS, pH 7.4. The
data points are the average of three independent measurements, with error bars as ±SD.

[2] = target: T3, α‐Thrombin mutant R93A (exosite II) (Homo sapiens, UniProt P00734, R452A); experiment: Slow binding inhibition of thrombin mutant R93A; assay type: biochemical; settings: slow binding inhibition model
T3 construct: made in house
Experimental: Single X → Ala mutants of αT at either exosite I (Phe34Ala, Lys73Ala, Lys110Ala) and II (Arg93Ala, Arg101Ala) were produced and purified to homogeneity as earlier reported (Acquasaliente et al., [2016]; Pozzi et al., [2013]) (Figure S3) and incubated with haemadin to extract kinetic (k on and k off) and equilibrium (K I) constants of αT inhibition. […]
When slow binding inhibition assays were performed, αT (50 pM) was added to solutions of S2238 (50 μM) in the presence of increasing inhibitor (I) concentrations. From the time‐course release of pNA, [P]t, an observed kinetic constant (k obs) of substrate hydrolysis could be determined as a fitting parameter by interpolating each progress curve at increasing [I] to Equation (5) (Arcone et al., [2009]): (5) Pt=vs∙t+vo−vs/kobs∙1−e^−kobs∙t, where v 0 and v s is the initial or steady state velocity at each [I]. The association (k on) and dissociation (k off) rate constants of αT‐haemedin interaction were determined as fitting parameters by interpolating the data points of k obs as a function of [I] with Equation (6): (6) kobs=kon/1+S/Km∙I+koff. […]

[3] = octanol/water; of the organic molecule corresponding to the amino acid side chain at position 3, not of the peptide; ref Sangster, 1989; cited from earlier work
αT [4] = target: T4, αT (Homo sapiens, UniProt P00734, S568A); parameters: made in house; settings: cited from earlier work
From the text: Abstract Hirudin from Hirudo medicinalis is a bivalent α‐Thrombin (αT) inhibitor, targeting the enzyme active site and exosite‐I, and is currently used in anticoagulant therapy along with its simplified analogue hirulog. […] At variance with hirudin, haemadin targets exosite‐II and therefore (besides the free protease) it also blocks thr ... || The relevance of pharmacological applications of hirudin and its analogues has stimulated intensive research on hematophagous organisms, allowing identification of novel αT protein inhibitors, including the isolation of haemadin from the Indian leech Haemadipsa sylvestris (Strube et al., [1993]). […] However, haemadin binds to the fast form only 7‐fold more tightly than to the Na^+‐free (slow) form, with a coupling free energy ΔG c = ΔG b(fast) − ΔG b(slow) = −1.1 kcal/mol. For comparison, full‐length hirudin and its N‐terminal domain 1–47, bind more tightly to the fast form by ~30‐fold (ΔG c = −2.1 kcal/mol), compared to the slow form (De Filippis et al., [2005]; Di Cera et al., [1997]). The higher af ... || (+ 1 further places)

[5] = Thermal denaturation monitored by far‐UV CD; assay type: physicochemical; settings: PBS pH 7.4, protein 0.69 mg/mL; CD at 233 nm (haemadin) or 220 nm (hirudin); heating 40°C·h^−1; inflection point, rough estimate
Experimental: CD spectra were recorded on a Jasco J‐810 spectropolarimeter equipped with a Peltier model ETC‐273 T temperature control system (De Filippis, Polverino de Laureto, et al., [1996]). Far and Near UV‐CD spectra were recorded in a 0.1‐ or 1 cm‐pathlength quartz cell at a peptide/protein concentration of 0.47 or 1 mg/mL, respectively. All measurements were performed in phosphate buffered saline (PBS, 10 mM Na2HPO4 pH 7.4, 0.15 M NaCl) at 25 ± 0.1°C. The final spectra resulted from the average of four accumulations after base line subtraction. CD data were expressed as the mean residue ellipticity, [θ] = θ obs·MRW/(10·l·c), where θ obs is the observed signal in degrees, MRW is the mean residue weight, l is the cuvette pathlength in cm, and c is the protein concentration in g∙mL^−1. Stability measurements were carried out by recording the change of the CD signal in the far‐UV region as a function of sample temperature, using a 0.1‐cm pathlength cuvette and linear heating rate of 40°C∙h^−1. The reversibility of thermal unfolding was determined by measuring the recovery of the CD signal upon cooling to the starting temperature. The melting temperature (T m) was estimated from the first‐derivative of the thermal denaturation curve (De Filippis, Vassiliev, et al., [1996]; Frigerio et al., [1996]).

αT [6] = settings: at the Arg‐X bond; ref Maraganore et al., 1990; Lombardi et al., 1996, 1999; cited from earlier work
From the text: The fragment‐based approach is quite common in drug discovery and has been already exploited for the production of hirulogs, hirutonins, and hirunorms as simplified hirudin analogues (Lombardi et al., [1996]; Maraganore et al., [1990]; Szewczuk et al., [1993]). […] As a result, hirulog I (Angiomax®) is slowly ...

αT [7] = target: T4, αT
[8] = target: thrombin R93A (exosite II) (Homo sapiens, UniProt P00734, R452A); experiment: biochemical
Experimental: (§8) The reaction was started by addition of the chromogenic substrate S2238 (50 μM). Values of v i/v 0 are plotted as a function of inhibitor concentration, where v 0 and v i are the steady state velocities of S2238 hydrolysis in the absence or presence of inhibitor. Data points are the average of three independent measurements, with errors as ±SD. […] Data points in binding/inhibition measurements are the average of three independent measurements, with errors as ±SD.
(§9) Fluorescence measurements were performed at 25 ± 0.1°C in Tris buffered saline (TBS, 20 mM Tris–HCl, pH 7.4, 0.15 M NaCl, 0.1% PEG‐8000) in a 1 cm‐pathlength cuvette, using a Jasco FP‐6500 spectrofluorimeter, equipped with a Peltier model ETC‐273T temperature control system. […] Briefly, to a solution of αT (50 nM) were added, under gentle magnetic stirring, incremental volumes of ligand stock solutions. The samples were excited at 280 nm (5/5 excitation/emission slit) and the emission intensities were recorded at 334 nm, after subtracting the corresponding spectra of the ligands alone. Fluorescence data were corrected for sample dilution, which was always <2% at the end of the titration. […]
(§10) When the binding of PABA was studied, samples were excited at 336 nm and the emission of PABA was recorded at 376 nm, after baseline subtraction and correction for inner filter effect, as detailed elsewhere (Pontarollo et al., [2017]). […]

[9] = target: recombinant wild‐type thrombin (Homo sapiens, UniProt P00734); experiment: biochemical
Experimental: as §8, §9, §10

## IRFGMGKVPCPDGEVGYTCDCGEKICLYGQSCNDGQCSGDPKPSSEFEEFEIDEEEK (disulfide 10-19, 21-32, 26-37) [haemadin]
[1]
  koff: 4.83e-05 ± 2e-07 s⁻¹
[1]; αT 50 pM added to S2238 plus inhibitor
  kon: 2.253e+08 ± 200000 M⁻¹ s⁻¹
α‐thrombin (αT)
  Ki: 0.0015 ± 5e-05 nM
[2]
  koff: 3.68e-05 ± 1e-07 s⁻¹
  kon: 2.998e+08 ± 300000 M⁻¹ s⁻¹

## CCCC[C@H](NC(=O)CNC(=O)[C@H](Cc1ccccc1)NC(=O)[C@H](CCCNC(=N)N)NC(=O)[C@@H](N)[C@@H](C)CC)C(=O)NCC(=O)N[C@@H](CCCCN)C(=O)N[C@H](C(=O)N1CCC[C@H]1C(=O)NCC(=O)O)C(C)C [Met5Nle] (H-IRFG[Nle]GKVPG-OH)
α‐thrombin (αT)
  Ki: 1900 ± 100 nM
[3]
  Log P: 2.73

## CCCC[C@H](NC(=O)CNC(=O)[C@H](Cc1ccc2ccccc2c1)NC(=O)[C@H](CCCNC(=N)N)NC(=O)[C@@H](N)[C@@H](C)CC)C(=O)NCC(=O)N[C@@H](CCCCN)C(=O)N[C@H](C(=O)N1CCC[C@H]1C(=O)NCC(=O)O)C(C)C [Phe3βNal] (H-IR[2Nal]G[Nle]GKVPG-OH)
α‐thrombin (αT)
  Ki: 190 ± 10 nM
[3]
  Log P: 4.00

## hirudin
αT [4]; fast vs slow form, ref De Filippis et al., 2005, Di Cera et al., 1997
  coupling free energy ΔG c: -2.1 kcal/mol
αT [4]; ref De Filippis et al., 2005, Di Cera et al., 1997
  fold tighter binding to fast form than to slow form: ~ 30 fold
[5]
  melting temperature (T m): 63 ± 1 °C and ~ 63 °C

## CCCC[C@H](NC(=O)CNC(=O)[C@H](Cc1ccc(O)cc1)NC(=O)[C@H](CCCNC(=N)N)NC(=O)[C@@H](N)[C@@H](C)CC)C(=O)NCC(=O)N[C@@H](CCCCN)C(=O)N[C@H](C(=O)N1CCC[C@H]1C(=O)NCC(=O)O)C(C)C [Phe3Tyr] (H-IRYG[Nle]GKVPG-OH)
α‐thrombin (αT)
  Ki: 6600 ± 400 nM
[3]
  Log P: 1.97

## CCCC[C@H](NC(=O)CNC(=O)[C@H](Cc1cccc2ccccc12)NC(=O)[C@H](CCCNC(=N)N)NC(=O)[C@@H](N)[C@@H](C)CC)C(=O)NCC(=O)N[C@@H](CCCCN)C(=O)N[C@H](C(=O)N1CCC[C@H]1C(=O)NCC(=O)O)C(C)C [Phe3αNal] (H-IR[1Nal]G[Nle]GKVPG-OH)
[3]
  Log P: 4.00

## Phe3Trp: Phe3′ → Trp analogue of Haem(1–10)
α‐thrombin (αT); 25 ± 0.1°C, TBS, αT 250 pM incubated with peptide, S2238 50 μM, tight‐binding model (Eq. 3, 4), average of three independent measurements ± SD, read-out: K I
  Ki: 2900 ± 300 nM

## VSYTD [reference compound]
α‐thrombin (αT); not shown
  inhibition of αT: lacks any significant inhibition

## hirulog I: synthetic bivalent analogue of hirudin
αT [6]
  cleavage by αT: slowly cleaved

## CCCC[C@H](NC(=O)CNC(=O)[C@H](Cc1ccc2ccccc2c1)NC(=O)[C@H](CCCNC(=N)N)NC(=O)[C@@H](N)[C@@H](C)CC)C(=O)NCC(=O)N[C@@H](CCCCN)C(=O)N[C@H](C(=O)N1CCC[C@H]1C(=O)NCC(=O)NCC(=O)NCC(=O)N1CCC[C@H]1C(=O)N[C@@H](CCCCN)C(=O)N1CCC[C@H]1C(=O)N[C@@H](CO)C(=O)N[C@@H](CO)C(=O)N[C@@H](CCC(=O)O)C(=O)N[C@@H](Cc1ccccc1)C(=O)N[C@@H](CCC(=O)O)C(=O)N[C@@H](CCC(=O)O)C(=O)N[C@@H](Cc1ccccc1)C(=O)N[C@@H](CCC(=O)O)C(=O)N[C@H](C(=O)N[C@@H](CC(=O)O)C(=O)N[C@@H](CCC(=O)O)C(=O)N[C@@H](CCC(=O)O)C(=O)N[C@@H](CCC(=O)O)C(=O)N[C@@H](CCCCN)C(=O)O)[C@@H](C)CC)C(C)C [haemanorm] (H-IR[2Nal]G[Nle]GKVPGGGPKPSSEFEEFEIDEEEK-OH)
αT [7]
  resistance to proteolysis by αT at the Arg2‐βNal bond: fully resistant
α‐thrombin (αT)
  Ki: 0.8 nM

## CCCC[C@H](NC(=O)CNC(=O)[C@H](CC1CCCCC1)NC(=O)[C@H](CCCNC(=N)N)NC(=O)[C@@H](N)[C@@H](C)CC)C(=O)NCC(=O)N[C@@H](CCCCN)C(=O)N[C@H](C(=O)N1CCC[C@H]1C(=O)NCC(=O)O)C(C)C [Phe3Cha] (H-IR[Cha]G[Nle]GKVPG-OH)
α‐thrombin (αT)
  Ki: 3800 ± 100 nM
[3]
  Log P: 3.88

## CCCC[C@H](NC(=O)CNC(=O)[C@@H](NC(=O)[C@H](CCCNC(=N)N)NC(=O)[C@@H](N)[C@@H](C)CC)C(c1ccccc1)c1ccccc1)C(=O)NCC(=O)N[C@@H](CCCCN)C(=O)N[C@H](C(=O)N1CCC[C@H]1C(=O)NCC(=O)O)C(C)C [Phe3DiP] (H-IR[Dip]G[Nle]GKVPG-OH)
α‐thrombin (αT)
  Ki: 7400 ± 400 nM
[3]
  Log P: 4.80

## SEFEEFEIDEEEK [Haem(45–57)]
[8]
  Kd: 1180 ± 90 nM
[9]
  Kd: 1600 nM

## N‐terminal domain 1–40: N‐terminal domain 1–40 of haemadin (Richardson et al., 2002)
αT [4]; ref Richardson et al., 2002
  Ki: 5 nM
